Data as given in patent US9271978B2 (Zenith Epigenetics Corp., priority 2012, dated 2016).

Key:
hIL-6 mRNA = experiment: Inhibition of hIL-6 mRNA transcription in U937 cells; type: cell-based, human; parameters: key: Active: Compounds with an IC50 value less than 30 μM were deemed to be active.; Not Active: Compounds with an IC50 value less than 30 μM were deemed to be active; details: LPS stimulation, active = IC50 <30 μM
How it was run: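 U937 cells differentiated 3 days with 60 ng/mL PMA, pretreated 1 h with compound, then stimulated with 1 ug/mL E. coli LPS for 3 h at 37° C. hIL-6 mRNA quantified by one-step qRT-PCR, Ct normalized to internal control, expressed as fold induction relative to control.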

[1] = target: T1, second bromodomain of Brd2 (BRD2(2)) (Homo sapiens, UniProt P25440); experiment: Inhibition of tetra-acetylated histone H4 binding to Brd2 bromodomain 2 (TR-FRET); parameters: key: Active: Compounds with an IC50 value less than 30 μM were deemed to be active.; Not Active: Compounds with an IC50 value less than 30 μM were deemed to be active; details: tetra-acetylated histone H4 peptide, active = IC50 <30 μM
T1 construct: made in house; host or cells: E. coli BL21 (DE3)
T1 sequence (P25440 344-453 limits assumed): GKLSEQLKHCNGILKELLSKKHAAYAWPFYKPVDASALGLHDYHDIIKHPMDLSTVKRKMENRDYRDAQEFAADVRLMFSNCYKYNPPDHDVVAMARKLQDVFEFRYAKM
How it was run: (§1)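 N-terminally His-tagged bromodomains (200 nM), expressed in E. coli, were incubated with biotinylated tetra-acetylated histone H4 peptide (25-50 nM), Eu-cryptate streptavidin and XL665 anti-His antibody in HEPES pH 7.4 buffer with KF, 0.2% DMSO, 2 h at room temperature. Inhibition read as decreased 665/620 nm TR-FRET; IC50 from dose-response curves.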

c-myc = experiment: Inhibition of c-myc expression in MV4-11 cells (mRNA, real-time PCR); type: cell-based; parameters: key: Active: Compounds with an IC50 value less than 30 μM were deemed to be active.; Not Active: Compounds with an IC50 value less than 30 μM were deemed to be active; details: Human AML MV4-11 cells, 3 h incubation
How it was run: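 MV4-11 cells (2.5×10^4) treated with compound or 0.1% DMSO for 3 h at 37 °C. c-myc mRNA measured by RT real-time PCR duplexed with cyclophilin. IC50 from dose–response curve.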

[2] = target: T2, Brd4 bromodomain 1 (BRD4(1)) (Homo sapiens, UniProt O60885); experiment: Inhibition of tetra-acetylated histone H4 binding to Brd4 bromodomain 1 (TR-FRET); parameters: key: Active: Compounds with an IC50 value less than 30 μM were deemed to be active.; Not Active: Compounds with an IC50 value less than 30 μM were deemed to be active; details: tetra-acetylated histone H4 peptide, active = IC50 <30 μM
T2 construct: Illustrative results with the first bromodomain of Brd4; made in house; host or cells: E. coli BL21 (DE3)
How it was run: as §1

ApoA-I mRNA = experiment: Up-regulation of hApoA-1 mRNA transcription in Huh7 cells; type: cell-based, human; parameters: key: Active: Compounds with an EC170 value less than 30 μM were deemed to be active; details: 48 h treatment, ApoA-I mRNA by real-time PCR, Active = EC170 less than 30 μM
How it was run: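 Huh7 cells treated with compound for 48 h. ApoA-I mRNA was then quantified in captured mRNA by one-step real-time RT-PCR. Fold induction calculated from Ct values relative to the matching DMSO control; EC170 is the concentration for 170% of control expression.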

[3] = tested on: human AML MV-4-11 (CRL-9591) cells; experiment: Inhibition of cell proliferation in MV4-11 cells; type: cell-based; parameters: key: Active: Compounds with an IC50 value less than 30 μM were deemed to be active.; Not Active: Compounds with an IC50 value less than 30 μM were deemed to be active; details: human AML MV-4-11 cells, 72 h; active = IC50 <30 μM
How it was run: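 Exponentially growing MV-4-11 cells (5×10^4/well) were treated immediately with two-fold dilutions of compound from 30 μM to 0.2 μM, in triplicate, for 72 h at 37° C, 5% CO2. Viability was measured by MTS absorbance at 490 nm after 3–4 h. Proliferation relative to DMSO after blank correction gave IC50.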

Structure (SMILES)	IL-6 activity (IC50 <30 μM) (hIL-6 mRNA)	FRET activity (IC50 <30 μM) BRD2(2) [1]	c-myc activity (IC50 <30 μM) (c-myc)	FRET activity (IC50 <30 μM) BRD4(1) [2]	ApoA-1 activity (EC170 <30 μM) (ApoA-I mRNA)	Cell Proliferation activity (IC50 <30 μM) [3]
COc1cccc(Cn2nc(-c3cc(OC)c(OC)c(OC)c3)ccc2=O)c1 [Example 119, 2-(3-Methoxybenzyl)-6-(3,4,5-trimethoxyphenyl)pyridazin-3(2H)-one]	Active	Active	Not Active	Active	Active	Active
Cc1noc(C)c1-c1ccc(=O)n([C@@H](C)c2ccccc2)n1 [Example 109, (S)-6-(3,5-Dimethylisoxazol-4-yl)-2-(1-phenylethyl)pyridazin-3(2H)-one]	Active	Active	Active	Active	Active	Active
CNc1cc(-c2c(C)noc2C)cn(Cc2ccccc2)c1=O [Example 75, 1-Benzyl-5-(3,5-dimethylisoxazol-4-yl)-3-(methylamino)pyridin-2(1H)-one]	Active	Active	Active	Active	Active	Active
COc1ccc(Cn2nc(-c3cc(OC)c(OC)c(OC)c3)ccc2=O)cc1 [Example 117, 2-(4-Methoxybenzyl)-6-(3,4,5-trimethoxyphenyl)pyridazin-3(2H)-one]	Active	Active	Not Active	Active	Active	Not Active
Cc1noc(C)c1-c1ccc(=O)n(Cc2ccc3[nH]cnc3c2)c1 [Example 146, 1-((1H-benzo[d]imidazol-5-yl)methyl)-5-(3,5-dimethylisoxazol-4-yl)pyridin-2(1H)-one]	Active	Active	Active	Active	Active	Not Active
COc1cc(-c2ccc(=O)n(Cc3cccc(NC(C)=O)c3)n2)cc(OC)c1OC [Example 17, N-(3-((6-Oxo-3-(3,4,5-trimethoxyphenyl)pyridazin-1(6H)-yl)methyl)phenyl)acetamide]	Active	Active	Active	Active	Active	Not Active
Cc1noc(C)c1-c1ccc(=O)n([C@H](C)c2ccccc2)n1 [Example 108, (R)-6-(3,5-Dimethylisoxazol-4-yl)-2-(1-phenylethyl)pyridazin-3(2H)-one]	Active	Active	Active	Active	Active	Active
COc1ccc(Nc2ccc(=O)n(Cc3ccccc3)n2)cc1OC [Example 60, 2-Benzyl-6-((3,4-dimethoxyphenyl)amino)pyridazin-3(2H)-one]	Active	Active	Not Active	Active	Active	Not Active
Cc1noc(C)c1-c1cc(C)c(=O)n(Cc2ccccc2)c1 [Example 66, 1-Benzyl-5-(3,5-dimethylisoxazol-4-yl)-3-methylpyridin-2(1H)-one]	Active	Active	Active	Active	Active	Active
Cc1noc(C)c1-c1ccc(=O)n(Cc2ccc(Cl)cn2)c1 [Example 55, 1-((5-Chloropyridin-2-yl)methyl)-5-(3,5-dimethylisoxazol-4-yl)pyridin-2(1H)-one]	Active	Active	Active	Active	Active	Active
Cc1noc(C)c1-c1ccc(=O)n(Cc2ccc(F)cc2)c1 [Example 132, 5-(3,5-Dimethylisoxazol-4-yl)-1-(4-fluorobenzyl)pyridin-2(1H)-one]	Active	Active	Active	Active	Active	Active
Cc1noc(C)c1-c1cc(N)c(=O)n(Cc2ccc(Cl)c(Cl)c2)c1 [Example 213, 3-amino-1-(3,4-dichlorobenzyl)-5-(3,5-dimethylisoxazol-4-yl)pyridin-2(1H)-one]	Active	–	Active	Active	Active	Active
COc1ccc(Cn2cc(-c3c(C)noc3C)cc(N)c2=O)cc1 [Example 220, 3-amino-5-(3,5-dimethylisoxazol-4-yl)-1-(4-methoxybenzyl)pyridin-2(1H)-one]	Active	–	Active	Active	Active	Active
Cc1noc(C)c1-c1cc(N)c(=O)n(Cc2ccc(F)c(Cl)c2)c1 [Example 212, 3-amino-1-(3-chloro-4-fluorobenzyl)-5-(3,5-dimethylisoxazol-4-yl)pyridin-2(1H)-one]	Active	–	Active	Active	Active	Active
Cc1onc(CO)c1-c1cc(N)c(=O)n(Cc2ccc(Cl)cc2)c1 [Example 205, 3-Amino-1-(4-chlorobenzyl)-5-(3-(hydroxymethyl)-5-methylisoxazol-4-yl)pyridin-2(1H)-one]	Active	–	Active	Active	Active	Active
